Test results reported in patent publication US20090325952A1, “PYRAZOLO[3,4-B]PYRIDINE COMPOUNDS, AND THEIR USE AS PDE4 INHIBITORS” (Glaxo Group Limited, priority 2006, published 2009).
Where a name gives a salt, the structure may show the parent alone.

Legend:
[1] = system: LPS-induced pulmonary neutrophilia in rats; assay: In Vivo Assay 1: LPS induced pulmonary neutrophilia in rats, intratracheal administration; parameters: species or system rat; settings: rats; for mean inhibition of LPS-induced pulmonary neutrophilia: i.t. aqueous solution, about 2 hours prior to LPS; for estimated ED50 for inhibition of LPS-induced pulmonary neutrophilia: i.t., micronised, aqueous solution in 0.2% Tween 80 in PBS, about 2 hours prior to LPS challenge
Description: This assay is an animal model of acute inflammation in the lung—specifically neutrophilia induced by lipopolysaccharide (LPS)—and allows the study of putative inhibition of such neutrophilia (anti-inflammatory effect) by an intratracheally (i.t.) administered PDE4 inhibitor (“drug”). The PDE4 inhibitors are suitably in dry powder, aqueous solution or aqueous suspension form. I.t. administration is one model of inhaled administration, allowing topical delivery to the lung.
Animals: Male CD (Sprague Dawley Derived) rats supplied by Charles River, United Kingdom are housed in groups of 5 rats per cage, acclimatised after delivery for at least 7 days with bedding/nesting material regularly changed, fed on SDS diet R1 pelleted food given ad lib, and supplied with daily-changed pasteurised animal grade drinking water.
Device for dry powder administration: For these studies, a Penn Century DP-4 dry powder intratracheal (i.t.) delivery device (insufflator) is used for administration of a dry powder blend of vehicle (inhalation grade lactose) and the PDE4 inhibitor compound or salt of the invention (“drug”). Each device is numbered and the sample loading chamber is unscrewed from the main device and weighed. The i.t. delivery needle is also weighed. The drug+lactose blend or inhalation grade lactose (vehicle control) is then added to the sample chamber and this is then re-weighed. The sample chamber is fitted back on to the main device to prevent any drug being lost. This procedure is repeated for all of the Penn century devices to be used in the study (one separate device for each animal). After dosing to the animals, the sample chambers and needles are re-weighed in order to determine the amount of sample that was expelled from the device.
Device for aqueous solution administration: A blunt dosing needle, whose forward end is slightly angled to the needle axis, is used, with a flexible plastic portex canula inserted into the needle. The portex cannula is inserted into the lumen of the blunt stainless steel dosing needle and this is carefully inserted into the back of the animal's throat and into the trachea via the larynx. A known volume (200 microlitres) of the vehicle (0.2% Tween 80™ in saline) or of the solution (or suspension) drug composition is administered into the trachea using a plastic syringe that is attached to the portex cannula and dosing needle. A new internal cannula is used for each different drug group. After dosing, the needle is removed from the trachea and the animals are removed from the table and continually observed until they recover from the effects of anaesthesia. The animals are then returned to the holding cages and given free access to food and water, and are observed and any unusual behavioural changes noted. (Aqueous suspensions can be handled generally similarly.)
Drugs and Materials: Lipopolysaccharide (LPS) (Serotype:0127:B8, e.g. from Sigma, UK; e.g. L3129 prepared by phenol extraction) is dissolved in phosphate-buffered saline (PBS).
For dry powder, aqueous solution or aqueous suspension administration, PDE4 inhibitors are preferably used in size-reduced (e.g. micronised) form, for example according to the Micronisation Example(s) disclosed herein.
For dry powder administration of the drug, the PDE4 inhibitor compound or salt of the invention (drug) is administered as a dry powder blended with inhalation-grade (respiratory-grade) lactose, i.e. as a dry powder composition. The target quantity of dry powder composition administered i.t. to each animal is 2 mg. This remains constant throughout the studies. To achieve different doses, blends of the drug dry powder and lactose, containing different concentrations of the PDE4 inhibitor compound or salt of the invention (drug), are prepared. […]

PDE3 (from bovine aorta) = assay: Inhibition of PDE3 activity (FP or SPA assays); format: biochemical; settings: selectivity PDE4B over PDE3
Description: PDE3 can be purified from bovine aorta as described by H. Coste and P. Grondin, “Characterisation of a novel potent and specific inhibitor of type V phosphodiesterase”, Biochem. Pharmacol., 1995, 50, 1577-1585.
The ability of compounds to inhibit catalytic activity at PDE4B or 4D (human recombinant), PDE3 (from bovine aorta), PDE5 (human recombinant) or PDE6 (from bovine retina) can optionally be determined by Scintillation Proximity Assay (SPA) in a 96-well format.
Test compounds (as a solution in DMSO, suitably about 2 microlitre (ul) volume of DMSO solution) are preincubated at ambient temperature (room temperature, e.g. 19-23° C.) in Wallac Isoplates (code 1450-514) with PDE enzyme in 50 mM Tris-HCl buffer pH 7.5, 8.3 mM MgCl2, 1.7 mM EGTA, 0.05% (w/v) bovine serum albumin for 10-30 minutes (usually 30 minutes). The enzyme concentration is adjusted so that no more than 20% hydrolysis of the substrate defined below occurs in control wells without compound, during the incubation. […] Bound radioactive product is measured using a WALLAC TRILUX 1450 Microbeta scintillation counter. […] Curves are analysed using ActivityBase and XLfit (ID Business Solutions Limited, 2 Ocean Court, Surrey Research Park, Guildford, Surrey GU2 7QB, United Kingdom) Results are expressed as pIC50 values. […]

In the case of `CCc1nc2c(cnn2CC)c(NC2CCOCC2)c1CNC(=O)c1ccc(NC(=O)CCCCCCCN(C)CCO)cc1` [Example 1A1, N-{[1,6-Diethyl-4-(tetrahydro-2H-pyran-4-ylamino)-1H-pyrazolo[3,4-b]pyridin-5-yl]methyl}-4-({8-[(2-hydroxyethyl)(methyl)amino]octanoyl}amino)benzamide dihydrochloride], the “mean inhibition of LPS-induced pulmonary neutrophilia” value (from here on “mean inhibition”) ([1]; about 10 micrograms/kg, dihydrochloride) was “about 33%”, the “mean inhibition” value ([1]; about 30 micrograms/kg, dihydrochloride) was “about 56%” and the “mean inhibition” value ([1]; about 100 micrograms/kg, dihydrochloride) was “about 76%”. The “mean inhibition” value ([1]; about 300 micrograms/kg) was “about 74%” and the “estimated ED50 for inhibition of LPS-induced pulmonary neutrophilia” value ([1]; dihydrochloride) was “approximately 12.3 micrograms/kg body weight”.
With `CCc1nc2c(cnn2CC)c(NC2CCOCC2)c1CNC(=O)c1ccc(NC(=O)CCCCCCCN(C)CCO)cc1` [Example 1B, N-{[1,6-diethyl-4-(tetrahydro-2H-pyran-4-ylamino)-1H-pyrazolo[3,4-b]pyridin-5-yl]methyl}-4-({8-[(2-hydroxyethyl)(methyl)amino]octanoyl}amino)benzamide] the “mean inhibition” value ([1]; about 10 micrograms/kg) was “about 29%”, the “mean inhibition” value ([1]; about 30 micrograms/kg) was “about 75%” and the “mean inhibition” value ([1]; about 100 micrograms/kg) was “about 59%”. For the same compound, the “estimated ED50 for inhibition of LPS-induced pulmonary neutrophilia” value [1] was “approximately 10.1 micrograms/kg body weight” and the “PDE4B inhibition compared with PDE3 inhibition (pIC50 values)” value (PDE3 (from bovine aorta)) was “inhibit PDE4B more strongly than they inhibit PDE3, PDE5 and PDE6”.
